Test results taken from patent US20200046869A1, “USE OF ZINC TREATED PRECIPITATED CALCIUM CARBONATE IN HYGIENIC PRODUCTS” (Omya International AG, priority 2017, published 2020).

Experiments:
[1] = tested on: Fungi; experiment: Plate count of fungal growth in zinc containing powders; format: cell-based; settings: powder in disruption buffer, Sabouraud-Glucose agar, 7 days at 25° C.; detection limit 10 cfu/g
Protocol: The microbial contamination (bacterial and fungi growth) of three different zinc containing powder samples was determined by the plate count method (spread count) according to the following procedure: 1 g of the respective powder and 9 ml sterile disruption buffer (DB) were weighed into a sterile 50 ml test tube (Greiner) under aseptic conditions using an autoclaved disposable spatula (VWR) in order to obtain suspensions of the zinc containing powder samples. To detach the microorganisms from the zinc containing powders samples, the suspensions were shaken on a vortex for 60 sec. at 2500 rpm before being put on a shaker for 30 minutes at motor setting 1400 (at room temperature, i.e. 21° C.). The sample to be analyzed was appropriately diluted and a defined volume no greater than 0.1 ml was spread over the surface of an agar plate using a sterile glass/plastic spreader. The agar plates were then incubated upside down (condensed water) for a defined period of time at a defined temperature. The sample to be analyzed was diluted 1:10 in PBS and 100 μl of the dilution were spread onto the plate which was incubated for 7 days at 25° C. The plates were evaluated by counting the grown colonies, thereby taking into account that only plates containing between 30-300 colonies have a high statistical significance. […]

[2] = tested on: Aerobe bacteria (TSA plates); experiment: Plate count of aerobe total viable count in zinc containing powders; format: cell-based; settings: powder in disruption buffer, 48 hours at 30° C., detection limit 100 cfu/g
Protocol: The microbial contamination (bacterial and fungi growth) of three different zinc containing powder samples was determined by the plate count method (spread count) according to the following procedure: 1 g of the respective powder and 9 ml sterile disruption buffer (DB) were weighed into a sterile 50 ml test tube (Greiner) under aseptic conditions using an autoclaved disposable spatula (VWR) in order to obtain suspensions of the zinc containing powder samples. To detach the microorganisms from the zinc containing powders samples, the suspensions were shaken on a vortex for 60 sec. at 2500 rpm before being put on a shaker for 30 minutes at motor setting 1400 (at room temperature, i.e. 21° C.). The sample to be analyzed was appropriately diluted and a defined volume no greater than 0.1 ml was spread over the surface of an agar plate using a sterile glass/plastic spreader. The agar plates were then incubated upside down (condensed water) for a defined period of time at a defined temperature. The sample to be analyzed was diluted 1:10 in PBS and 100 μl of the dilution was spread onto the TSA plate which was incubated for 48 hours at 30° C. The plates were evaluated by counting the grown colonies, thereby taking into account that only plates containing between 30-300 colonies have a high statistical significance. […]

Row | Structure (SMILES) | TVC Fungi [1] [cfu/g] | TVC Aerobe [2] [cfu/g]
1 | O=C([O-])[O-].[Zn+2] [ZnCaCO3, ZnCO3] | <10 | <100
2 | [O]=[Zn] [ZnO] | <10 | <100
